Paper PMC9866191, “Novel 9-Benzylaminoacridine Derivatives as Dual Inhibitors of Phosphodiesterase 5 and Topoisomerase II for the Treatment of Colon Cancer” (Molecules, 2023)

Legend:
Type in all cases: cell-based
[1] = system: panel of 60 human tumor cell lines; test: NCI 60-cell line one-dose screen (mean); conditions: mean of the 60 cell lines, single dose 10^−5 M, read-out: Mean % Growth Inhibition
Summary of the method: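 Compounds were tested at a single concentration of 10^−5 M against the NCI Developmental Therapeutic Program's 60 human tumour cell lines covering 9 tissue types. Activity is expressed as percent growth inhibition.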

[2] = system: CCRF-CEM; test: NCI-60 one-dose screen; conditions: Homo sapiens, Leukemia panel, single dose 10^−5 M, read-out: Growth inhibition %
[3] = system: 786-0; test: NCI-60 one-dose screen; conditions: Homo sapiens; 786-0, Renal Cancer panel; single dose 10^−5 M; read-out: Growth inhibition %
[4] = system: A498; test: NCI-60 one-dose screen; conditions: Homo sapiens; A498, Renal Cancer panel; single dose 10^−5 M; read-out: Growth inhibition %
[5] = system: ACHN; test: NCI-60 one-dose screen; conditions: Homo sapiens, Renal Cancer panel, single dose 10^−5 M, read-out: Growth inhibition %
[6] = system: BT-549; test: NCI-60 one-dose screen; conditions: Homo sapiens; BT-549, Breast Cancer panel; single dose 10^−5 M; read-out: Growth inhibition %
[7] = system: CAKI-1; test: NCI-60 one-dose screen; conditions: Homo sapiens; CAKI-1, Renal Cancer panel; single dose 10^−5 M; read-out: Growth inhibition %
[8] = system: DU-145; test: NCI-60 one-dose screen; conditions: Homo sapiens; DU-145, Prostate Cancer panel; single dose 10^−5 M; read-out: Growth inhibition %
[9] = system: EKVX; test: NCI-60 one-dose screen; conditions: Homo sapiens, Non-small cell lung panel, single dose 10^−5 M, read-out: Growth inhibition %
[10] = system: HCT-15; test: NCI-60 one-dose screen; conditions: Homo sapiens; HCT-15, Colon Cancer panel; single dose 10^−5 M; read-out: Growth inhibition %
[11] = system: HL-60(TB); test: NCI-60 one-dose screen; conditions: Homo sapiens, Leukemia panel, single dose 10^−5 M, read-out: Growth inhibition %
[12] = system: HOP-92; test: NCI-60 one-dose screen; conditions: Homo sapiens; HOP-92, Non-small cell lung panel; single dose 10^−5 M; read-out: Growth inhibition %
[13] = system: HT29; test: NCI-60 one-dose screen; conditions: Homo sapiens, HT-29; HT29, Colon Cancer panel; single dose 10^−5 M; read-out: Growth inhibition %
[14] = system: M14; test: NCI-60 one-dose screen; conditions: Homo sapiens; M14, Melanoma panel; single dose 10^−5 M; read-out: Growth inhibition %
[15] = system: MCF7; test: NCI-60 one-dose screen; conditions: Homo sapiens; MCF7, Breast Cancer panel; single dose 10^−5 M; read-out: Growth inhibition %
[16] = system: MDA-MB-435; test: NCI-60 one-dose screen; conditions: Homo sapiens; MDA-MB-435, Melanoma panel; single dose 10^−5 M; read-out: Growth inhibition %
[17] = system: MOLT-4; test: NCI-60 one-dose screen; conditions: Homo sapiens; MOLT-4, Leukemia panel; single dose 10^−5 M; read-out: Growth inhibition %
[18] = system: NCI-H23; test: NCI-60 one-dose screen; conditions: Homo sapiens; NCI-H23, Non-small cell lung panel; single dose 10^−5 M; read-out: Growth inhibition %
[19] = system: NCI-H460; test: NCI-60 one-dose screen; conditions: Homo sapiens; NCI-H460, Non-small cell lung panel; single dose 10^−5 M; read-out: Growth inhibition %
[20] = system: NCI-H522; test: NCI-60 one-dose screen; conditions: Homo sapiens; NCI-H522, Non-small cell lung panel; single dose 10^−5 M; read-out: Growth inhibition %
[21] = system: NCI/ADR-RES; test: NCI-60 one-dose screen; conditions: Homo sapiens, Ovarian Cancer panel, single dose 10^−5 M, read-out: Growth inhibition %
[22] = system: OVCAR-4; test: NCI-60 one-dose screen; conditions: Homo sapiens; OVCAR-4, Ovarian Cancer panel; single dose 10^−5 M; read-out: Growth inhibition %
[23] = system: OVCAR-5; test: NCI-60 one-dose screen; conditions: Homo sapiens; OVCAR-5, Ovarian Cancer panel; single dose 10^−5 M; read-out: Growth inhibition %
[24] = system: PC-3; test: NCI-60 one-dose screen; conditions: Homo sapiens; PC-3, Prostate Cancer panel; single dose 10^−5 M; read-out: Growth inhibition %
[25] = system: SF-295; test: NCI-60 one-dose screen; conditions: Homo sapiens; SF-295, CNS Cancer panel; single dose 10^−5 M; read-out: Growth inhibition %
[26] = system: SK-MEL-28; test: NCI-60 one-dose screen; conditions: Homo sapiens; SK-MEL-28, Melanoma panel; single dose 10^−5 M; read-out: Growth inhibition %
[27] = system: SK-MEL-5; test: NCI-60 one-dose screen; conditions: Homo sapiens; SK-MEL-5, Melanoma panel; single dose 10^−5 M; read-out: Growth inhibition %
[28] = system: SK-OV-3; test: NCI-60 one-dose screen; conditions: Homo sapiens; SK-OV-3, Ovarian Cancer panel; single dose 10^−5 M; read-out: Growth inhibition %
[29] = system: SNB-75; test: NCI-60 one-dose screen; conditions: Homo sapiens; SNB-75, CNS Cancer panel; single dose 10^−5 M; read-out: Growth inhibition %
[30] = system: SR; test: NCI-60 one-dose screen; conditions: Homo sapiens, Leukemia panel, single dose 10^−5 M, read-out: Growth inhibition %
[31] = system: T-47D; test: NCI-60 one-dose screen; conditions: Homo sapiens, T47D, Breast Cancer panel, single dose 10^−5 M, read-out: Growth inhibition %
[32] = system: IGROV1; test: NCI-60 one-dose screen; conditions: Homo sapiens, IGROV-1; IGROV1, Ovarian Cancer panel; single dose 10^−5 M; read-out: Growth inhibition %

SMILES | inhibition at 10 µM [1] | inhibition at 10 µM [2] | inhibition at 10 µM [3] | inhibition at 10 µM [4] | inhibition at 10 µM [5] | inhibition at 10 µM [6] | inhibition at 10 µM [7] | inhibition at 10 µM [8] | inhibition at 10 µM [9] | inhibition at 10 µM [10] | inhibition at 10 µM [11] | inhibition at 10 µM [12] | inhibition at 10 µM [13] | inhibition at 10 µM [14] | inhibition at 10 µM [15] | inhibition at 10 µM [16] | inhibition at 10 µM [17] | inhibition at 10 µM [18] | inhibition at 10 µM [19] | inhibition at 10 µM [20] | further results
COc1ccc(CNc2c3ccccc3nc3ccccc23)cc1OC [Compound 18, Acridin-9-yl-(3,4-dimethoxybenzyl)-amine] | 81.6% | 69.5% | 74.6% | 112% | 95.9% | 57.9% | 89.5% | 75.3% | 84.8% | 89.8% | 87.3% | 110% | 95.6% | 82.3% | 99.3% | 70.6% | 89.4% | 84.9% | 93.8% | 81.8% | inhibition at 10 µM [21]: 80.7%; inhibition at 10 µM [22]: 78.6%; inhibition at 10 µM [23]: 72.5%; inhibition at 10 µM [24]: 78%; inhibition at 10 µM [25]: 81.9%; inhibition at 10 µM [26]: 64.8%; inhibition at 10 µM [27]: 82.5%; inhibition at 10 µM [28]: 58.9%; inhibition at 10 µM [29]: 75.2%; inhibition at 10 µM [30]: 91.4%; inhibition at 10 µM [31]: 74.2%; inhibition at 10 µM [32]: 89.1%
Fc1cccc(CNc2c3ccccc3nc3ccccc23)c1F [Compound 20, Acridin-9-yl-(2,3-difluorobenzyl)-amine] | 40.7% | 37.6% | 34.6% | 101% | 69.4% | 9.44% | 54.3% | 23.3% | 37.1% | 60.5% | 24% | 97.3% | 70.9% | 29.4% | 70.2% | 12.7% | 71.6% | 39.4% | 52% | 46.1% | inhibition at 10 µM [21]: 51.5%; inhibition at 10 µM [22]: 50.1%; inhibition at 10 µM [23]: 26.8%; inhibition at 10 µM [24]: 42.9%; inhibition at 10 µM [25]: 46.2%; inhibition at 10 µM [26]: 3.12%; inhibition at 10 µM [27]: 17%; inhibition at 10 µM [28]: 24.1%; inhibition at 10 µM [29]: 21.2%; inhibition at 10 µM [30]: 61.8%; inhibition at 10 µM [31]: 31.7%; inhibition at 10 µM [32]: 47.3%
Fc1ccc(CNc2c3ccccc3nc3ccccc23)c(F)c1 [Compound 21, Acridin-9-yl-(2,4-difluorobenzyl)-amine] | 56.4% | 46.1% | 52.4% | 104% | 76.5% | 17.2% | 64.7% | 49.1% | 54.5% | 71.3% | 41.7% | 103% | 78.2% | 44.7% | 89.8% | 33.5% | 76.2% | 57.2% | 80% | 57.7% | inhibition at 10 µM [21]: 63.8%; inhibition at 10 µM [22]: 108%; inhibition at 10 µM [23]: 48.3%; inhibition at 10 µM [24]: 31.1%; inhibition at 10 µM [25]: 59.6%; inhibition at 10 µM [26]: 9.61%; inhibition at 10 µM [27]: 30.6%; inhibition at 10 µM [28]: 40.2%; inhibition at 10 µM [29]: 18.9%; inhibition at 10 µM [30]: 74.8%; inhibition at 10 µM [31]: 52.6%; inhibition at 10 µM [32]: 64.3%
c1ccc(CCNc2c3ccccc3nc3ccccc23)cc1 [Compound 23, Acridin-9-yl-phenethyl-amine] | 60.7% | 46.7% | 61.9% | 105% | 78.4% | 26.4% | 69.7% | 62% | 63.7% | 76.7% | 58.7% | 102% | 77.9% | 57.3% | 87.8% | 44.7% | 75.4% | 61.4% | 84.7% | 60.2% | inhibition at 10 µM [21]: 66.5%; inhibition at 10 µM [22]: 65%; inhibition at 10 µM [23]: 46.6%; inhibition at 10 µM [24]: 64.3%; inhibition at 10 µM [25]: 65.1%; inhibition at 10 µM [26]: 32.3%; inhibition at 10 µM [27]: 35.3%; inhibition at 10 µM [28]: 37.4%; inhibition at 10 µM [29]: 32.4%; inhibition at 10 µM [30]: 79.1%; inhibition at 10 µM [31]: 51.1%; inhibition at 10 µM [32]: 72%
c1csc(-c2ccc(CNc3c4ccccc4nc4ccccc34)cc2)c1 [Compound 24, Acridin-9-yl-(4-thiophen-2-yl-benzyl)-amine] | 96.9% | 97.4% | 70% | 102% | 41.4% | 66.3% | 64.5% | 38.3% | 41% | 166% | 157% | 102% | 147% | 174% | 163% | 183% | 98% | 61.8% | 87.1% | 71.1% | inhibition at 10 µM [21]: 88.8%; inhibition at 10 µM [22]: 84.7%; inhibition at 10 µM [23]: 32.9%; inhibition at 10 µM [24]: 76%; inhibition at 10 µM [25]: 84.2%; inhibition at 10 µM [26]: 186%; inhibition at 10 µM [27]: 191%; inhibition at 10 µM [28]: 35%; inhibition at 10 µM [29]: 63.9%; inhibition at 10 µM [30]: 144%; inhibition at 10 µM [31]: 28.1%; inhibition at 10 µM [32]: 90%
